Laboratory results taken from patent US6610720B2, “Method for treating or preventing emesis” (Merck Frosst Canada & Co., priority 2000, dated 2003).
“Also recorded” adds a separate entry of the source. Where two headings read alike, the source gives them in different places. Marks after values point to notes of the source that are not given here.

Assays:
ferrets [1] = experiment: Administration of alpha-2 adrenoceptor antagonists to ferrets (retching and vomiting); details: for Retches / Vomits / Latency responders only: mean±SEM; for Emesis following administration (in words): ferrets
Description: The ferrets were housed in a humidity and temperature controlled environment with food (Marshall Premium ferret diet; Marshall Farms, North Rose, N.Y., U.S.A.) and water provided ad libitum. On the day of the experiment, ferrets were put into individual cages and left to habituate for at least 30 minutes. Fasting was not a pre-requisite of these experiments. Pre-treatment with a test compound or vehicle was performed using a subcutaneous, an intraperitoneal or an oral administration, 60 minutes prior to the emetic challenge. […] Drugs were freshly prepared on the day of the experiment. […] During that time, the number of retches (i.e. rhythmic contraction of the abdomen) and vomiting movements (i.e. oral expulsion or attempt to expel solid/liquid matter from the gastrointestinal tract) were recorded.
Data is expressed as mean±SEM.

ferrets [2] = experiment: Behavioural effects observed following the administration of RS14203 in ferrets; assay type: in vivo, ferret (Mustela putorius furo); details: RS14203 1 mg/kg p.o.
Description: (§1) Fasting was not a pre-requisite of these experiments.

humans = details: cited from earlier work
children (3-12 yr) = details: cited from earlier work
ferrets [3] = details: for Incidence / Retches / Vomits / Latency responders only: 60 min prior; for Retches / Vomits: 2 h observation
Description: The anti-emetic activity of alpha-2 adrenoceptor agonists is preferably measured using, for instance, an in vivo emesis assay in the ferret. A variety of emetic stimuli may be employed including, for example, treatment with type IV cyclic nucleotide phosphodiesterase (PDE4) inhibitors (see Robichaud et al, Neuropharmacology (1999) 38, 289-297).
as §1

elderly patients = elderly patients undergoing intraocular surgery; cited from earlier work
ferrets [4] = details: doses ranging from 62.5-250 μg/kg
Description: Male adult ferrets (Mustela putorius furo; 1-2 kg, Marshall Farms, North Rose, N.Y., U.S.A.) were used and experiments were conducted according to procedures previously described (Robichaud et al, 1999, supra). The ferrets were housed in a humidity and temperature controlled environment with food (Marshall Premium ferret diet; Marshall Farms, North Rose, N.Y., U.S.A.) and water provided ad libitum. On the day of the experiment, ferrets were put into individual cages and left to habituate for at least 30 minutes. Fasting was not a pre-requisite of these experiments. Pre-treatment with a test compound or vehicle was performed using a subcutaneous, an intraperitoneal or an oral administration, 60 minutes prior to the emetic challenge. Emesis was induced by PDE4 inhibitors administered orally (dosing volume=1 ml/kg) at a dose known to cause emesis (Robichaud et al, 1999, supra). Drugs were freshly prepared on the day of the experiment. […] During that time, the number of retches (i.e. rhythmic contraction of the abdomen) and vomiting movements (i.e. oral expulsion or attempt to expel solid/liquid matter from the gastrointestinal tract) were recorded.

dogs = details: i.m.; cited from earlier work
[5] = pre-treatment 250 μg/kg s.c., listed as Clonidine
[6] = emetic agent CT-2450 30 mg/kg p.o., pre-treatment 250 μg/kg s.c.
[7] = emetic agent R-rolipram 3 mg/kg p.o., pre-treatment 250 μg/kg s.c.
[8] = emetic agent R-rolipram 3 mg/kg p.o., pre-treatment 250 μg/kg s.c., mean ± SEM
[9] = emetic agent RS14203 1 mg/kg p.o., pre-treatment 62.5 μg/kg s.c., mean ± SEM
[10] = emetic agent RS14203 1 mg/kg p.o., pre-treatment 125 μg/kg s.c.
[11] = emetic agent RS14203 1 mg/kg p.o., pre-treatment 125 μg/kg s.c., mean ± SEM
[12] = emetic agent RS14203 1 mg/kg p.o., pre-treatment 250 μg/kg s.c.
[13] = emetic agent RS14203 1 mg/kg p.o., pre-treatment 250 μg/kg s.c., mean ± SEM

## CS(=O)(=O)NCCN1C(=O)NC[C@]12CCN1CCc3c(oc4ccccc34)[C@@H]1C2 [MK-467]
Ferrets [1]; 1 mg/kg p.o.
  Incidence: 0/3
  Retches: 0 n° episodes
  Vomits: 0 n° episodes
Ferrets [1]; 3 mg/kg p.o.
  Incidence: 1/3
  Latency responders only: 12 min
  Retches: 4 ± 4 n° episodes
  Vomits: 0.3 ± 0.3 n° episodes
Ferrets [1]; 10 mg/kg po
  Incidence: 2/3
  Latency responders only: 18.5 ± 2.5 min
  Retches: 12 ± 6 n° episodes
  Vomits: 1.3 ± 0.9 n° episodes
Ferrets [1]
  Emesis following administration (in words): Emesis was also recorded

## CN1CC[C@]2(CCN3CCc4c(oc5ccccc45)[C@@H]3C2)N(C)C1=O.Cl [MK-912]
Ferrets [1]; 1 mg/kg p.o.
  Incidence: 2/8
  Latency responders only: 13.0 ± 5.0 min
  Retches: 3.2 ± 2.3 n° episodes
  Vomits: 0.4 ± 0.3 n° episodes
Ferrets [1]
  Emesis following administration (in words): Emesis was also recorded

## O=[N+]([O-])c1cccc(-c2cc(Cc3ccncc3)cc3cccnc23)c1 [RS14203]
Ferrets [2]
  Behavioural effects produced in addition to emesis: salivation, hyperventilation, gagging and clawing at the mouth

## COC(=O)[C@@H]1[C@H]2C[C@H]3c4[nH]c5ccccc5c4CCN3C[C@@H]2CC[C@@H]1O [Yohimbine, yohimbine]
Ferrets [1]; 3 mg/kg i.p.
  Incidence: 3/3
  Latency responders only: 7 ± 1 min
  Retches: 18.7 ± 3.8 n° episodes
  Vomits: 5.3 ± 1.8 n° episodes
Ferrets [1]; 3 mg/kg p.o.
  Incidence: 3/4
  Latency responders only: 30.3 ± 13.4 min
  Retches: 9.8 ± 6.2 n° episodes
  Vomits: 3.2 ± 1.2 n° episodes
Ferrets [1]; 3 mg/kg s.c.
  Incidence: 2/3
  Latency responders only: 9.5 ± 2.5 min
  Retches: 29.7 ± 17.6 n° episodes
  Vomits: 3.0 ± 1.7 n° episodes
Ferrets [1]
  Emesis following administration (in words): induced retching and vomiting in all ferrets treated; also recorded: caused unexpected retching and vomiting
humans
  Adverse effects following parenteral administration: nausea and vomiting

## Clc1cccc(Cl)c1N=C1NCCN1 [clonidine]
Children (3-12 yr)
  Incidence and frequency of vomiting following strabismus surgery: lower the incidence and frequency of vomiting
Ferrets [2]
  Effect on RS14203-induced gagging or clawing at the mouth: no effect
Ferrets [2]; pre-treatment 62.5 μg/kg s.c.
  Clawing at mouth: 2/3
  Gagging: 1/3
  Hyperventilation: 2/3
  Salivation: 2/3
Ferrets [2]; pre-treatment 125 μg/kg s.c.
  Clawing at mouth: 1/3
  Gagging: 1/3
  Hyperventilation: 2/3
  Salivation: 1/3
Ferrets [2]; pre-treatment 250 μg/kg s.c.
  Clawing at mouth: 5/6
  Gagging: 5/6
  Hyperventilation: one out of six
  Salivation: none of the animals
Ferrets [2]; [5]
  Hyperventilation: 1/6
  Salivation: 0/6
Ferrets [3]; CT-2450 30 mg/kg p.o., pre-treatment 250 μg/kg, all animals treated
  Effect on emesis induced by CT-2450: abolished emesis
Ferrets [3]; R-rolipram 3 mg/kg p.o., pre-treatment 250 μg/kg
  Animals with complete protection against R-rolipram-induced emesis: two out of three
Ferrets [3]; RS14203 1 mg/kg p.o., pre-treatment 250 μg/kg
  Animals showing complete protection against RS14203-induced emesis: five out of six
Ferrets [3]; RS14203 1 mg/kg p.o., pre-treatment 62.5-250 μg/kg
  Effect on number of retches and vomits induced by RS14203: dose-dependently decreased
Ferrets [3]; [6]
  Incidence: 0/5
  Retches: 0* n° episodes
  Vomits: 0* n° episodes
Ferrets [3]; [7]
  Incidence: 1/3
  Latency responders only: 5 min
Ferrets [3]; [8]
  Retches: 54.3 ± 54.3 n° episodes
  Vomits: 5.7 ± 5.7 n° episodes
Ferrets [3]; emetic agent RS14203 1 mg/kg p.o., pre-treatment 62.5 μg/kg s.c.
  Incidence: 2/3
Ferrets [3]; [9]
  Retches: 9.3 ± 7.9 n° episodes
  Vomits: 1.7 ± 1.2 n° episodes
  Latency responders only: 55.0 ± 49.0 min
Ferrets [3]; [10]
  Incidence: 1/3
  Latency responders only: 72 min
Ferrets [3]; [11]
  Retches: 2 ± 2 n° episodes
  Vomits: 1 ± 1 n° episodes
Ferrets [3]; [12]
  Incidence: 1/6
  Latency responders only: 111 min
Ferrets [3]; [13]
  Retches: 0.2 ± 0.2 n° episodes
  Vomits: 0.2 ± 0.2 n° episodes
Elderly patients
  Effect on emesis: no effect on emesis
  Sedation: induced sedation
Ferrets [4]
  Emesis triggered by the compound by itself: did not trigger emesis
Ferrets [4]; appeared dose-related
  Sedation following the administration: light sedation
dogs
  Emetic ED50: 0.025 mg/kg
